From ChEMBL document CHEMBL3045751, “Structural Modification of the 6-Chloropyridyl Moiety in the Imidacloprid, Skeleton: Introduction of a Five-membered Heteroaromatic Ring and the Resulting Insecticidal Activity” (1993) come the findings set out here.

For the assay, the system named is Nephotettix cincticeps. In words: Insecticidal activity against Nephotettix cincticeps (green rice leafhopper) in compound treated germinated rice seedlings assessed as mortality measured after 5 days. It counts as functional.
In the case of `Cn1cc(CN2CCN/C2=C\[N+](=O)[O-])cn1`, the LC90 was determined as 1.6 ppm. As for `O=[N+]([O-])/C=C1\NCCN1Cc1cnc(Cl)s1`, the figure is 0.32 ppm; as for `O=[N+]([O-])/C=C1\NCCN1Cc1cc(Br)no1`, 1.6 ppm; as for `O=[N+]([O-])/C=C1\NCCN1Cc1csc(Cl)n1`, 200 ppm. As for `O=[N+]([O-])/N=C1\NCCN1Cc1cnc(Cl)s1` [IMIDACLOTHIZ], the figure is 0.32 ppm; as for `O=[N+]([O-])/N=C1\NCCN1Cc1ccc(Cl)nc1` [IMIDACLOPRID], 0.32 ppm; as for `O=[N+]([O-])/C=C1\NCCN1Cc1cncs1`, 8 ppm. Under `Cc1ncc(CN2CCN/C2=C\[N+](=O)[O-])s1` stands 1.6 ppm; under `O=[N+]([O-])/C=C1\NCCN1Cc1ccc[nH]1`, 200 ppm. For `O=[N+]([O-])/C=C1\NCCN1Cc1ccc(Br)s1`, the LC90 is given as 40 ppm. Regarding `O=[N+]([O-])/C=C1\NCCN1Cc1cccnc1`, the LC90 is reported as 8 ppm. As for `O=[N+]([O-])/C=C1\NCCN1Cc1ccccc1`, the figure is 200 ppm.

Turning to `O=[N+]([O-])/C=C1\NCCN1Cc1ccc(Cl)nc1`, the LC90 is reported as 0.32 ppm. As for `O=[N+]([O-])/C=C1\NCCN1Cc1cccs1`, the figure is 200 ppm; as for `Cc1cc(CN2CCN/C2=C\[N+](=O)[O-])on1`, 1.6 ppm. As for `O=[N+]([O-])/C=C1\NCCN1Cc1ccco1`, the figure is 200 ppm.
